Results on 13 compounds are retold here after ChEMBL document CHEMBL1123905.

Structures are written as SMILES. Bounds are passed on as bounds.

Chain of Histamine H2 receptor (Cavia porcellus) (P47747 whole entry): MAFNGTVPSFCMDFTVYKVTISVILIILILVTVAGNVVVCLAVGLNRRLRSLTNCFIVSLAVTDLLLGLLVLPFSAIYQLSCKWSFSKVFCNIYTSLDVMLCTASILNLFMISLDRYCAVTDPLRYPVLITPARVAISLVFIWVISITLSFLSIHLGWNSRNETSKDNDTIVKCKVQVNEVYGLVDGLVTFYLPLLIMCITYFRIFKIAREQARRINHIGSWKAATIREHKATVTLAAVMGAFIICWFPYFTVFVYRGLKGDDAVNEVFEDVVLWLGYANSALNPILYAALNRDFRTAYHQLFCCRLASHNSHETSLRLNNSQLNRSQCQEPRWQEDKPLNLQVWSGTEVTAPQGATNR

This assay addresses Histamine H2 receptor (Cavia porcellus) (UniProt P47747). As to the kind of experiment: Antagonism of histamine stimulated rate of beating of guinea pig right atrium mediated by Histamine H2 receptor. The following applies: Cardiac atrium. Type of assay: functional, tissue-based.
`CN/C(=N\CCSCc1nc[nH]c1C)NC#N` registered a -Log KB of 6.1.
In the case of `Cc1[nH]cnc1CSCCNc1ncccc1C(=O)O`, the -Log KB amounted to 5.09.
For `CN/C(=N\CCSCc1[nH]cnc1C)S(=O)O` the value was 5.73.
Turning to `Cc1[nH]cnc1CSCC/N=C(\N)c1ccc(C(=O)O)cc1`, the -Log KB stood at 3.7.
`Cc1[nH]cnc1CSCCNc1ccc(C(=O)O)cn1` registered a -Log KB of less than 3.3.
Take `Cc1[nH]cnc1CSCCNc1cc(C(=O)O)ccn1`: the -Log KB stood at 3.76.
Compound `Cc1[nH]cnc1CSCC/N=C(\N)C(=O)O` displayed a -Log KB of 5.41.
Take `Cc1[nH]cnc1CSCCNc1ncccc1O`: the -Log KB is 5.89.
The same measure for `Cc1[nH]cnc1CSCCNc1ncccc1S(=O)(=O)O`: 3.77.
The same measure for `Cc1[nH]cnc1CSCC/N=C(\N)CC(=O)O`: 3.3.
With `CN/C(=N\CCSCc1[nH]cnc1C)P(=O)(O)OC`, the -Log KB was found to be 4.25.
For `CN/C(=N\CCSCc1[nH]cnc1C)S(=O)(=O)O` the value was 5.87; for `Cc1[nH]cnc1CSCC/N=C(\N)c1ccc(O)cc1`, 4.2.
